This experiment addresses T1, IL-17A (Homo sapiens, UniProt Q16552).
T1 sequence (Q16552 24-155): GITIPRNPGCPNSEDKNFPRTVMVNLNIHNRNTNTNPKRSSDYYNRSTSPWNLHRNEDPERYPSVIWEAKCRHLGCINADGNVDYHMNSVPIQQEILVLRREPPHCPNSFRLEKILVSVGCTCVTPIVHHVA
The experiment is described as follows: Inhibition of IL-17A induced IL-6 release from dermal fibroblast cell line (HDF cell line assay). Type of experiment: cell-based. The settings on record: human dermal fibroblasts stimulated with IL-17A (50 pM) + TNF-α (25 pM); IL-6 measured by HTRF; pIC50 = -log10[IC50], IC50 molar. The text has this:
Inhibition of IL-17A Induced IL-6 Release from Dermal Fibroblast Cell Line
The purpose of this assay is to test the neutralising ability to IL-17 proteins, in a human primary cell system. Stimulation of normal human dermal fibroblasts (HDF) with IL-17 alone produces only a very weak signal but in combination with certain other cytokines, such as TNFα, a synergistic effect can be seen in the production of inflammatory cytokines, i.e. IL-6.
HDFs were stimulated with IL-17A (50 pM) in combination with TNF-α (25 pM). The resultant IL-6 response was then measured using a homogenous time-resolved FRET kit from Cisbio. The kit utilises two monoclonal antibodies, one labelled with Eu-Cryptate (Donor) and the second with d2 or XL665 (Acceptor). The intensity of the signal is proportional to the concentration of IL-6 present in the sample (Ratio is calculated by 665/620×104).
The ability of a compound to inhibit IL-17 induced IL-6 release from human dermal fibroblasts is measured in this assay.
HDF cells (Sigma #106-05n) were cultured in complete media (DMEM+10% FCS+2 mM L-glutamine) and maintained in a tissue culture flask using standard techniques. Cells were harvested from the tissue culture flask on the morning of the assay using TrypLE (Invitrogen #12605036). The TrypLE was neutralised using complete medium (45 mL) and the cells were centrifuged at 300×g for 3 minutes. The cells were re-suspended in complete media (5 mL) counted and adjusted to a concentration of 3.125×10^4 cells/mL before being added to the 384 well assay plate (Corning #3701) at 40 μL per well. The cells were left for a minimum of three hours, at 37° C./5% CO2, to adhere to the plate.
Compounds were serially diluted in DMSO before receiving an aqueous dilution into a 384 well dilution plate (Greiner #781281), where 5 μL from the titration plate was transferred to 45 μL of complete media and mixed to give a solution containing 10% DMSO.
Mixtures of TNFα and IL-17 cytokine were prepared in complete media to final concentrations of TNFα 25 pM/IL-17A 50 pM, then 30 μL of the solution was added to a 384 well reagent plate (Greiner #781281).
10 μL from the aqueous dilution plate was transferred to the reagent plate containing 30 μL of the diluted cytokines, to give a 2.5% DMSO solution. The compounds were incubated with the cytokine mixtures for 5 h at 37° C. After the incubation, 10 μL was transferred to the assay plate, to give a 0.5% DMSO solution, then incubated for 18-20 h at 37° C./5% CO2.
From the Cisbio IL-6 FRET kit (Cisbio #62IL6PEB) europium cryptate and Alexa 665 were diluted in reconstitution buffer and mixed 1:1, as per kit insert. To a white low volume 384 well plate (Greiner #784075) were added FRET reagents (10 μL), then supernatant (10 μL) was transferred from the assay plate to Greiner reagent plate. The mixture was incubated at room temperature for 3 h with gentle shaking (<400 rpm) before being read on a Synergy Neo 2 plate reader (Excitation: 330 nm; Emission: […]).

The structures appear in SMILES notation.

A word on the IC50: it is the concentration needed to halve the response being measured.

With `Cc1nonc1C(=O)N[C@H](c1cn2ncc([C@@H]3C[C@@](C)(O)CCN3C(=O)[C@@H]3CCC(F)(F)CO3)nc2n1)C1CCC(F)(F)CC1` (single isomer, unassigned) [Example 38], the IC50 was 126 nM. Next, `Cc1nonc1C(=O)N[C@H](c1cn2ncc([C@H]3C[C@](C)(O)CCN3C(=O)[C@@H]3CCC(F)(F)CO3)nc2n1)C1CCC(F)(F)CC1` (single isomer, unassigned) [Example 39]: 5.01 nM. Next, `Cc1nonc1C(=O)N[C@H](c1cn2ncc([C@@H]3C[C@@](C)(O)CCN3C(=O)C34CC(F)(C3)C4)nc2n1)C1CCC(F)(F)CC1` (single isomer, unassigned) [Example 40]: 79.4 nM; `Cc1nonc1C(=O)N[C@H](c1cn2ncc([C@H]3C[C@](C)(O)CCN3C(=O)C34CC(F)(C3)C4)nc2n1)C1CCC(F)(F)CC1` (single isomer, unassigned) [Example 41]: 794 nM; `Cc1nonc1C(=O)N[C@H](c1cn2ncc([C@@H]3C[C@H](O)CCN3C(=O)[C@@H]3CCC(F)(F)CO3)nc2n1)C1CCC(F)(F)CC1` (single isomer, unassigned) [Example 42]: 12.6 nM. In the case of `Cc1nonc1C(=O)N[C@H](c1cn2ncc([C@H]3C[C@@H](O)CCN3C(=O)[C@@H]3CCC(F)(F)CO3)nc2n1)C1CCC(F)(F)CC1` (single isomer, unassigned) [Example 43] it was 25.1 nM. Turning to `Cc1nonc1C(=O)N[C@H](c1cn2ncc([C@@H]3C[C@@H](O)CCN3C(=O)[C@@H]3CCC(F)(F)CO3)nc2n1)C1CCC(F)(F)CC1` (single isomer, unassigned) [Example 44], the IC50 is 126 nM.

On to `Cc1nonc1C(=O)N[C@H](c1cn2ncc([C@H]3C[C@H](O)CCN3C(=O)[C@@H]3CCC(F)(F)CO3)nc2n1)C1CCC(F)(F)CC1` (single isomer, unassigned) [Example 45], for which the concentration for half-maximal inhibition (IC50) was 3.98 nM. In the case of `Cn1nccc1C(=O)N[C@H](c1cn2ncc([C@@H]3C[C@@](O)(C(F)F)CCN3C(=O)[C@@H]3CCC(F)(F)CO3)nc2n1)C1CCC(F)(F)CC1` (single isomer, unassigned) [Example 46] it was 12.6 nM. `Cn1nccc1C(=O)N[C@H](c1cn2ncc([C@H]3C[C@](O)(C(F)F)CCN3C(=O)[C@@H]3CCC(F)(F)CO3)nc2n1)C1CCC(F)(F)CC1` (single isomer, unassigned) [Example 47]: the IC50 is 631 nM. `CC(C)n1ncnc1C(=O)N[C@H](c1cn2ncc([C@@H]3C[C@@](O)(C(F)F)CCN3C(=O)[C@@H]3CCC(F)(F)CO3)nc2n1)C1CCC(F)(F)CC1` (single isomer, unassigned) [Example 48]: the IC50 is 6.31 nM.

Take `CC(C)n1ncnc1C(=O)N[C@H](c1cn2ncc([C@@H]3C[C@@](O)(C(F)F)CCN3C(=O)[C@@H]3CCC(F)(F)CO3)nc2n1)C1CCC(F)(F)CC1` (single isomer, unassigned) [Example 49]: the IC50 was 631 nM. In the case of `CC(C)n1ncnc1C(=O)N[C@H](c1cn2ncc([C@H]3C[C@@H](O)CCN3C(=O)[C@@H]3CCC(F)(F)CO3)nc2n1)C1CCC(F)(F)CC1` (single isomer, unassigned) [Example 50], the IC50 was 12.6 nM. Next, `CC(C)n1ncnc1C(=O)N[C@H](c1cn2ncc([C@H]3C[C@@H](O)CCN3C(=O)[C@@H]3CCC(F)(F)CO3)nc2n1)C1CCC(F)(F)CC1` (single isomer, unassigned) [Example 51]: 251 nM; `CC(C)n1ncnc1C(=O)N[C@H](c1cn2ncc([C@@H]3C[C@](C)(O)CCN3C(=O)[C@@H]3CCC(F)(F)CO3)nc2n1)C1CCC(F)(F)CC1` (single isomer, unassigned) [Example 52]: 7.94 nM; `CC(C)n1ncnc1C(=O)N[C@H](c1cn2ncc([C@H]3C[C@@](C)(O)CCN3C(=O)[C@@H]3CCC(F)(F)CO3)nc2n1)C1CCC(F)(F)CC1` (single isomer, unassigned) [Example 53]: 501 nM. Next, `O=C(N[C@H](c1cn2ncc(C3CS(=O)(=O)CCN3C(=O)C34CC(F)(C3)C4)nc2n1)[C@H]1CC[C@H](C(F)(F)F)CC1)OCc1ccccc1` (stereo partly drawn) [Example 13, Benzyl N—[(S)-{3-[4-(3-fluorobicyclo[1.1.1]pentane-1-carbonyl)-1,1-dioxo-1,4-thiazinan-3-yl]imidazo[1,2-b][1,2,4]triazin-6-yl}[4-(trifluoromethyl)cyclohexyl]methyl]carbamate]: 50.1 nM.

`CC(C)n1nccc1C(=O)N[C@H](c1cn2ncc(C3(C(=O)NCC(C)(F)F)CCC(F)(F)CC3)nc2n1)C1CCC(F)(F)CC1` [Example 16, N—[(S)-(4,4-Difluorocyclohexyl){3-[1-(2,2-difluoropropylcarbamoyl)-4,4-difluoro-cyclohexyl]imidazo[1,2-b][1,2,4]triazin-6-yl}methyl]-2-isopropylpyrazole-3-carboxamide]: the half-maximal inhibitory concentration (IC50) is 12.6 nM. Next, `Cc1nonc1C(=O)N[C@H](c1cn2ncc(C3(C(=O)NCC(C)(F)F)CCOCC3)nc2n1)C1CCC(F)(F)CC1` [Example 17, N—[(S)-(4,4-Difluorocyclohexyl){3-[4-(2,2-difluoropropylcarbamoyl)tetrahydropyran-4-yl]imidazo[1,2-b][1,2,4]triazin-6-yl}methyl]-4-methyl-1,2,5-oxadiazole-3-carboxamide]: 12.6 nM; `Cc1nonc1C(=O)N[C@H](c1cn2ncc(C3(C(=O)N4CC(F)(F)C(F)(F)C4)CCN(C4COC4)CC3)nc2n1)C1CCC(F)(F)CC1` [Example 54, N—[(S)-(4,4-Difluorocyclohexyl){3-[1-(oxetan-3-yl)-4-(3,3,4,4-tetrafluoropyrrolidine-1-carbonyl)piperidin-4-yl]imidazo[1,2-b][1,2,4]triazin-6-yl}methyl]-4-methyl-1,2,5-oxadiazole-3-carboxamide]: 7.94 nM; `Cc1nonc1C(=O)N[C@H](c1cn2ncc(C3(C(=O)N4CC(C(F)(F)F)C4)CCN(C4COC4)CC3)nc2n1)C1CCC(F)(F)CC1` [Example 55, N—[(S)-(4,4-Difluorocyclohexyl)(3-{1-(oxetan-3-yl)-4-[3-(trifluoromethyl)azetidine-1-carbonyl]piperidin-4-yl}imidazo[1,2-b][1,2,4]triazin-6-yl)methyl]-4-methyl-1,2,5-oxadiazole-3-carboxamide]: 63.1 nM.

Consider `Cc1nonc1C(=O)N[C@H](c1cn2ncc(C3(C(=O)NCC(C)(F)F)CCN(C4COC4)CC3)nc2n1)C1CCC(F)(F)CC1` [Example 56, N—[(S)-(4,4-Difluorocyclohexyl){3-[4-(2,2-difluoropropylcarbamoyl)-1-(oxetan-3-yl)-piperidin-4-yl]imidazo[1,2-b][1,2,4]triazin-6-yl}methyl]-4-methyl-1,2,5-oxadiazole-3-carboxamide], for which the IC50 was 15.8 nM.

The values are drawn from patent publication US20240294534A1, “IMIDAZOTRIAZINE DERIVATIVES AS IL-17 MODULATORS” (UCB BIOPHARMA SRL, priority 2021, published 2024).
